In ChEMBL document CHEMBL6182926, “Design, Synthesis, and Biological Activity Evaluation of Deuterated Diphenyl Azole Alcohol-Based CYP51 Inhibitors” (J Med Chem, 2025):
Converted amounts (≈) assume the structure as drawn. The source made the active and inactive calls. The rule behind the calls is not given here.

Columns and labels:
Candida parapsilosis = experiment: Antifungal activity against Candida parapsilosis GIM 2.190 assessed as inhibition of visible growth; type: functional; conditions: Lodderomyces parapsilosis
Aspergillus fumigatus = experiment: Antifungal activity against Aspergillus fumigatus CGMCC 3.7795 assessed as inhibition of visible growth; type: functional
Cryptococcus neoformans = experiment: Antifungal activity against Cryptococcus neoformans CGMCC 2.3161 assessed as inhibition of visible growth; type: functional
Candida tropicalis = experiment: Antifungal activity against Candida tropicalis CGMCC 2.3739 assessed as inhibition of visible growth; type: functional
Candida albicans [1] = experiment: Antifungal activity against Candida albicans SC 5314 assessed as inhibition of visible growth; type: functional
Pichia kudriavzevii = experiment: Antifungal activity against Candida krusei AS 2.1045 assessed as inhibition of visible growth; type: functional
Nakaseomyces glabratus = experiment: Antifungal activity against Clinical isolate Candida glabrata assessed as inhibition of visible growth; type: functional
Candida albicans [2] = experiment: Antifungal activity against Candida albicans CPCC 400616 assessed as inhibition of visible growth; type: functional
[3] = Metabolic stability in human liver microsomes assessed as compound remaining measured up to 60 mins by LC-MS/MS analysis; type: ADME, Microsome; conditions: for remaining at 1 h: liver microsomes, read-out: Activity
[4] = Metabolic stability in human liver microsomes assessed as half life by LC-MS/MS analysis; type: ADME, Microsome; conditions: for half-life: liver microsomes
Cell membrane [5] = experiment: Induction of loss of cell membrane integrity in Candida albicans SC5314 assessed as irregular cell morphology at 16 microg/ml measured after 48 hrs incubation by transmission electron microscopy; type: subcellular; conditions: dose 16.0 µg/ml, tested as the 2H-labelled form
Candida albicans [6] = experiment: In vivo anti-resistant activity against fluconazole-resistant Candida albicans strain 17# infected in cyclophosphamide-immunosuppressed ICR mouse model assessed as reduction in fungal burden in kidney at 5 mg/kg, oral gavage for 5 days post infection; type: functional, organism-based; conditions: time 5.0 day, tested as the 2H-labelled form
Mus musculus = experiment: In vivo antifungal activity against Candida albicans SC5314 infected in ICR mouse model assessed as mouse survival at 1 mg/kg, oral gavage measured for 21 days post infection; type: functional, organism-based; conditions: time 21.0 day, tested as the 2H-labelled form
Cell membrane [7] = experiment: Induction of loss of cell membrane integrity in Candida albicans SC5314 assessed as leakage of intracellular components into the extracellular environment at 16 microg/ml measured after 48 hrs incubation by transmission electron microscopy; type: subcellular; conditions: dose 16.0 µg/ml
Candida albicans [8] = experiment: In vivo anti-resistant activity against fluconazole-resistant Candida albicans strain 17# infected in cyclophosphamide-immunosuppressed ICR mouse model assessed as reduction in fungal burden in kidney at 10 mg/kg, oral gavage for 5 days post infection; type: functional, organism-based; conditions: time 5.0 day, tested as the 2H-labelled form
Candida albicans [9] = experiment: In vivo antifungal activity against Candida albicans SC5314 infected in cyclophosphamide-immunosuppressed ICR mouse model assessed as reduction in fungal burden in kidney at 5 mg/kg, oral gavage for 5 days post infection; type: functional, organism-based; conditions: time 5.0 day, tested as the 2H-labelled form
Candida albicans [10] = experiment: Antifungal activity against Candida albicans CPCC 400616 assessed as suppression of hyphal formation (inhibition of yeast to hypha transition) at 2 microg/ml measured after 4 hrs by inverted microscopy; type: functional, organism-based; conditions: dose 2.0 µg/ml, tested as the 2H-labelled form
Candida albicans [11] = experiment: In vivo antifungal activity against Candida albicans SC5314 infected in cyclophosphamide-immunosuppressed ICR mouse model assessed as reduction in fungal burden in kidney at 1 mg/kg, oral gavage for 5 days post infection; type: functional, organism-based; conditions: time 5.0 day, tested as the 2H-labelled form
[12] = Cytotoxicity against human HUVEC cells measured after 72 hrs by MTT assay; type: toxicity, cell-based

| MIC80 (Candida parapsilosis) [µg/mL] | MIC80 (Aspergillus fumigatus) [µg/mL] | MIC80 (Cryptococcus neoformans) [µg/mL] | MIC80 (Candida tropicalis) [µg/mL] | MIC80 (Candida albicans [1]) [µg/mL] | MIC80 (Pichia kudriavzevii) [µg/mL] | MIC80 (Nakaseomyces glabratus) [µg/mL] | MIC80 (Candida albicans [2]) [µg/mL] | SMILES | further results |
| --- | --- | --- | --- | --- | --- | --- | --- | --- | --- |
| 0.012 (≈ 0.023 µM) | 0.05 (≈ 0.0958 µM) | 0.025 (≈ 0.0479 µM) | 0.012 (≈ 0.023 µM) | 0.012 (≈ 0.023 µM) | 0.025 (≈ 0.0479 µM) | 0.025 (≈ 0.0479 µM) | 0.012 (≈ 0.023 µM) | [2H]C([2H])([2H])N(Cc1ccc(-c2ccc(Cl)c(F)c2)cc1F)[C@H](C)[C@](O)(Cn1cncn1)c1ccc(F)cc1F |  |
| 0.006 (≈ 0.0115 µM) | 0.025 (≈ 0.0481 µM) | 0.012 (≈ 0.0231 µM) | 0.006 (≈ 0.0115 µM) | 0.006 (≈ 0.0115 µM) | 0.012 (≈ 0.0231 µM) | 0.012 (≈ 0.0231 µM) | 0.006 (≈ 0.0115 µM) | [2H]C([2H])([2H])N(Cc1ccc(-c2ccc(C(F)(F)F)cc2)cc1)[C@H](C)[C@](O)(Cn1cncn1)c1ccc(F)cc1F | remaining at 1 h [3]: 29%; half-life [4]: 35.1 min |
| 0.006 (≈ 0.0123 µM) | 0.05 (≈ 0.103 µM) | 0.012 (≈ 0.0246 µM) | 0.006 (≈ 0.0123 µM) | 0.006 (≈ 0.0123 µM) | 0.012 (≈ 0.0246 µM) | 0.025 (≈ 0.0513 µM) | 0.006 (≈ 0.0123 µM) | [2H]C([2H])([2H])N(Cc1ccc(-c2ccc(Cl)cc2)cn1)[C@H](C)[C@](O)(Cn1cncn1)c1ccc(F)cc1F |  |
| 0.006 (≈ 0.0112 µM) | 0.025 (≈ 0.0466 µM) | 0.012 (≈ 0.0224 µM) | 0.012 (≈ 0.0224 µM) | 0.006 (≈ 0.0112 µM) | 0.012 (≈ 0.0224 µM) | 0.012 (≈ 0.0224 µM) | 0.012 (≈ 0.0224 µM) | [2H]C([2H])([2H])N(Cc1ccc(-c2ccc(OC(F)(F)F)cc2)nc1)[C@H](C)[C@](O)(Cn1cncn1)c1ccc(F)cc1F |  |
| 0.006 (≈ 0.0115 µM) | 0.025 (≈ 0.048 µM) | 0.012 (≈ 0.0231 µM) | 0.012 (≈ 0.0231 µM) | 0.012 (≈ 0.0231 µM) | 0.012 (≈ 0.0231 µM) | 0.012 (≈ 0.0231 µM) | 0.006 (≈ 0.0115 µM) | [2H]C([2H])([2H])N(Cc1ccc(-c2ccc(C(F)(F)F)cc2)nc1)[C@H](C)[C@](O)(Cn1cncn1)c1ccc(F)cc1F |  |
| 0.006 (≈ 0.0128 µM) |  | 0.012 (≈ 0.0256 µM) | 0.006 (≈ 0.0128 µM) | 0.006 (≈ 0.0128 µM) | 0.012 (≈ 0.0256 µM) | 0.012 (≈ 0.0256 µM) | 0.006 (≈ 0.0128 µM) | CN(Cc1ccc(-c2ccc(Cl)cc2)cc1)CC(O)(Cn1cncn1)c1ccc(F)cc1F (configuration not stated) | Activity ([3]; microsomes, 1 h): 21.3%; t1/2 ([4]; microsomes): 9.23 min |
| 0.012 (≈ 0.0223 µM) | 0.05 (≈ 0.093 µM) | 0.025 (≈ 0.0465 µM) | 0.012 (≈ 0.0223 µM) | 0.012 (≈ 0.0223 µM) | 0.05 (≈ 0.093 µM) | 0.025 (≈ 0.0465 µM) | 0.012 (≈ 0.0223 µM) | [2H]C([2H])([2H])N(Cc1ccc(-c2ccc(C(F)(F)F)cc2)cc1F)[C@H](C)[C@](O)(Cn1cncn1)c1ccc(F)cc1F |  |
|  |  |  |  |  |  |  |  | C[C@@H](N(C)Cc1ccc(-c2ccc(OC(F)(F)F)cc2)cc1)[C@](O)(Cn1cncn1)c1ccc(F)cc1F | Activity (Cell membrane [5]): Active; Activity (Candida albicans [6]): Active; Activity (Mus musculus): inactive; Activity (Cell membrane [7]): Active; Activity (Candida albicans [8]): Active; Compound Showed Far Superior Effect Than Fluconazole; Activity (Candida albicans [9]): Active; inhibition (Candida albicans [10]): Active; Activity (Candida albicans [11]): Active; Low Dose Antifungal Activity Weaker Than Fluconazole (Positive Control) |
| 0.006 (≈ 0.00953 µM) | 0.05 (≈ 0.0794 µM) | 0.012 (≈ 0.0191 µM) | 0.006 (≈ 0.00953 µM) | 0.006 (≈ 0.00953 µM) | 0.05 (≈ 0.0794 µM) | 0.05 (≈ 0.0794 µM) | 0.006 (≈ 0.00953 µM) | CN(Cc1ccc(N2CCN(Cc3ccc(F)cc3Br)CC2)cc1)CC(O)(Cn1cncn1)c1ccc(F)cc1F (configuration not stated) | remaining at 1 h [3]: 0.936%; IC50 at 72 h [12]: 21 µM; half-life [4]: 2.89 min |
| 0.006 (≈ 0.0123 µM) | 0.025 (≈ 0.0514 µM) | 0.006 (≈ 0.0123 µM) | 0.006 (≈ 0.0123 µM) | 0.006 (≈ 0.0123 µM) | 0.012 (≈ 0.0247 µM) | 0.012 (≈ 0.0247 µM) | 0.006 (≈ 0.0123 µM) | [2H]C([2H])([2H])N(Cc1ccc(-c2ccc(Cl)cc2)cc1)[C@H](C)[C@](O)(Cn1cncn1)c1ccc(F)cc1F |  |
| 0.012 (≈ 0.0217 µM) | 0.05 (≈ 0.0903 µM) | 0.025 (≈ 0.0452 µM) | 0.012 (≈ 0.0217 µM) | 0.012 (≈ 0.0217 µM) | 0.05 (≈ 0.0903 µM) | 0.025 (≈ 0.0452 µM) | 0.012 (≈ 0.0217 µM) | [2H]C([2H])([2H])N(Cc1ccc(-c2ccc(OC(F)(F)F)cc2)cc1F)[C@H](C)[C@](O)(Cn1cncn1)c1ccc(F)cc1F |  |
| 0.006 (≈ 0.0119 µM) | 0.05 (≈ 0.099 µM) | 0.012 (≈ 0.0238 µM) | 0.012 (≈ 0.0238 µM) | 0.012 (≈ 0.0238 µM) | 0.012 (≈ 0.0238 µM) | 0.012 (≈ 0.0238 µM) | 0.006 (≈ 0.0119 µM) | [2H]C([2H])([2H])N(Cc1ccc(-c2ccc(Cl)cc2F)nc1)[C@H](C)[C@](O)(Cn1cncn1)c1ccc(F)cc1F |  |
